Laboratory results taken from patent US8822482B2, “Icotinib hydrochloride, synthesis, crystalline forms, pharmaceutical compositions, and uses thereof” (Beta Pharma, Inc., priority 2008, dated 2014).
Where two headings read alike, the source gives them in different places.

What was measured:
[1] = system: BGC-823 human gastric cancer cells; experiment: Tumor cell growth inhibition in vitro, MTT assay; format: cell-based
Procedure: (§1) Method: Cells (˜2×10^3) were seeded in 96-well plates in 200 μL of RPMI1640 cell culture medium supplemented with 10% FBS. After 24 hours at 37° C. and 5% CO2, the medium was replaced in quintuplicate wells with medium containing Icotinib hydrochloride Crystalline Form I dissolved in DMSO and then serial diluted, yielding final Icotinib concentrations of 0.05-300 μM. DMSO concentrations were less than 0.1% at the highest drug concentrations. Cells were incubated in medium alone with 0.1% DMSO as a negative control. Following a 96 hr incubation, the MTT [3-(4,5-dimethylthiazol-2-yl)-2,5-diphenyltetrazolium] colorimetric assay was performed using a microplate reader (reference wavelength 450 nm, detection wavelength 570 nm). The logarithm of drug concentration on the inhibition rate was linear, and the half inhibitory concentration of the drug (IC50) was obtained.

[2] = system: H460 human lung adenocarcinoma cells; experiment: Tumor cell growth inhibition in vitro, MTT assay; format: cell-based
Procedure: as §1

[3] = system: A549 human non-small cell lung cancer cells; experiment: Tumor cell growth inhibition in vitro, MTT assay; format: cell-based
Procedure: as §1

[4] = system: HCT8 human colon cancer cells; experiment: Tumor cell growth inhibition in vitro, MTT assay; format: cell-based
Procedure: as §1

[5] = system: A431 human epidermoid carcinoma; experiment: Tumor cell growth inhibition in vitro, MTT assay; format: cell-based; settings: A-431, A431, 96 hr
Procedure: as §1

[6] = system: KB human epidermoid carcinoma cells; experiment: Tumor cell growth inhibition in vitro, MTT assay; format: cell-based
Procedure: as §1

[7] = system: BEL-7402 human hepatoma cells; experiment: Tumor cell growth inhibition in vitro, MTT assay; format: cell-based
Procedure: as §1

[8] = Phase I clinical safety study, single doses of tablets; format: in vivo, human; settings: 25-1025 mg single doses, 76 subjects
[9] = biological target: EGFR tyrosine kinase (Homo sapiens, UniProt P00533); experiment: Inhibition of EGFR tyrosine kinase, 32P-ATP Crk substrate phosphorylation, polyacrylamide gel electrophoresis; format: biochemical; settings: for inhibition at 0.0625 µM: 62.5 nM
Sequence of EGFR tyrosine kinase (P00533 25-1210): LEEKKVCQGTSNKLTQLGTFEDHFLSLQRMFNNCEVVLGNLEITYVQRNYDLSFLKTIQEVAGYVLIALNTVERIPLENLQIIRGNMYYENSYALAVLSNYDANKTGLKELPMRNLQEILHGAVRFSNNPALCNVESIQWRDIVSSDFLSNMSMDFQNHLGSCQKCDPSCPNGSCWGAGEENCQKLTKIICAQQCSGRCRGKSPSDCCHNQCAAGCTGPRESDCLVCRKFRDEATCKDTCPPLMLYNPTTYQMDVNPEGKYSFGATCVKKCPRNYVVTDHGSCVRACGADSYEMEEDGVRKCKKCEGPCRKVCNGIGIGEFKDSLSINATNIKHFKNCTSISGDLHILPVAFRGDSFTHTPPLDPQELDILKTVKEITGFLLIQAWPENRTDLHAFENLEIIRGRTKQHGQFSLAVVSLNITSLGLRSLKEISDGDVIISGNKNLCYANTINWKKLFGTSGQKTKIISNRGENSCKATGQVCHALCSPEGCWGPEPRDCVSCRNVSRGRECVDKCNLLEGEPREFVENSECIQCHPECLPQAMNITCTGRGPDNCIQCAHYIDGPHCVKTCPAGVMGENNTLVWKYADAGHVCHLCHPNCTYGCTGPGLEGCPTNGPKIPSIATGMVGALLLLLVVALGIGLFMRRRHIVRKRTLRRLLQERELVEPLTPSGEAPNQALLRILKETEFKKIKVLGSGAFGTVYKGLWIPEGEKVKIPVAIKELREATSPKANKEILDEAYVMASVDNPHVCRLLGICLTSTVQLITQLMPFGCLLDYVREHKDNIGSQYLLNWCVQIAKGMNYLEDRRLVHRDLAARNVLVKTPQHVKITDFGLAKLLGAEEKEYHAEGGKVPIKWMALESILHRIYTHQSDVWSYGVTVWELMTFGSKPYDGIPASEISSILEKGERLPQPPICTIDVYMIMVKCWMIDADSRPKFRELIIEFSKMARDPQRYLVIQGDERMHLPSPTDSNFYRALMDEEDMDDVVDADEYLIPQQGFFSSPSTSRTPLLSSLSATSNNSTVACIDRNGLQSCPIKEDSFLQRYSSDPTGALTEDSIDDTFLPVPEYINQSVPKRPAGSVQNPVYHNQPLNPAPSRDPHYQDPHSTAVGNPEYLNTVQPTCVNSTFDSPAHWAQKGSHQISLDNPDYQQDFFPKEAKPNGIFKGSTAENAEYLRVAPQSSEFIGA
Procedure: (§2) Method: This method is based on the ability of protein kinases to catalyze substrate phosphorylation; radioisotope ^32P-labeled ATP (^32P-γ-ATP) is utilized in the reaction system to radioactively tag the protein substrate with ^32P. After separation and isolation of the protein substrate by polyacrylamide gel electrophoresis, the intensity of the radioactive ^32P-labeled protein substrate is recorded.
(§3) The kinase reaction buffer included 1 μM of non-isotope labeled-ATP. […] The mixture was incubated on ice for 10 min, and 1 μCi of ^32P-γ-ATP was then added. After incubation at 30° C. for 20 min, SDS (sodium dodecyl sulfate) sample buffer was added, and the mixture was boiled in a 100° C. water bath for 4 min. The samples were separated by 10% SDS-PAGE. After vacuum drying of the polyacrylamide gel, the intensity of radioactively labeled proteins were measured and recorded using a Phosphorimager (Molecular Dynamics Inc.). The signal was quantitatively analyzed utilizing ImageQuant software. The degree of Crk substrate phosphorylation was used to estimate the activity of the kinase. Inhibition (%)=(1−kinase activity of the test group/kinase activity of control group)×100%

[10] = system: H460 human lung adenocarcinoma xenograft; format: in vivo
[11] = system: EGFR tyrosine kinase-mediated intracellular protein tyrosine phosphorylation in A431 cells; experiment: Inhibition of EGFR-mediated protein phosphorylation at the cellular level (A431 cells, EGF-stimulated, anti-phosphotyrosine blot); format: cell-based; settings: Homo sapiens
Procedure: Methods: The experiment utilized a high EGFR-expressing cell line, A431 (human epidermoid carcinoma). A431 cells in logarithmic growth phase were seeded into 12-well cell culture plates (5×10^5 cells/well); the cells were grown in DMEM cell culture medium (Gibco Company) containing 10% fetal calf serum (FCS) at 37° C. in 5% CO2 for 18 hours. The cells were washed twice with PBS buffer, and DMEM without FCS was then added. After incubating for 18 hours, Icotinib hydrochloride Crystalline Form I in dimethyl sulfoxide (DMSO) was added to individual wells at final concentrations of 0, 10, 50, 250 or 1000 nM. After incubating at 37° C. for 2.5 hours, 100 ng/ml of EGF was added to stimulate the cells for 5 minutes. Cells were then extracted in the presence 1 mM vanadate (inhibits dephosphorylation) to collect total cellular proteins, and proteins were resolved by 10% SDS-PAGE and transferred to nitrocellulose. Following detection of phosphorylated proteins with anti-phosphotyrosine antibodies (PY99 and 4G10, Upstate Biotech) and visualization with a horseradish peroxidase-labeled second antibody (Transduction Laboratories, Inc.) and ECL chemiluminescence (Amersham Corp.), bands were quantified by densitometry. Membranes were then stripped and incubated with anti-EGFR antibodies to compare amounts of EGFR in cells exposed to different concentrations of Icotinib hydrochloride Crystalline Form I as an internal control. Inhibition (%)=(1−kinase activity of the test group/kinase activity of control group)×100%

[12] = system: P450 enzymes; experiment: Induction of P450 enzymes in rat liver; format: in vivo
Procedure: In addition, non-clinical pharmacokinetic studies of Icotinib hydrochloride Crystalline Form I in Beagle dogs and rats were conducted.

[13] = Pharmacology and toxicology experiments, safety pharmacology; format: in vivo, Beagle dogs, mice, and rats
Procedure: Pharmacology and toxicology experiments in Beagle dogs, mice, and rats using Icotinib hydrochloride Crystalline Form I were also conducted.

[14] = system: drug metabolism enzymes
[15] = biological target: Arg (abl-related gene) tyrosine kinase (Homo sapiens, UniProt P42684); experiment: Selectivity: inhibition of Arg tyrosine kinase, Crk substrate phosphorylation, same methodology; format: biochemical; settings: 62.5 nM
Sequence of Arg (abl-related gene) tyrosine kinase (P42684 whole entry): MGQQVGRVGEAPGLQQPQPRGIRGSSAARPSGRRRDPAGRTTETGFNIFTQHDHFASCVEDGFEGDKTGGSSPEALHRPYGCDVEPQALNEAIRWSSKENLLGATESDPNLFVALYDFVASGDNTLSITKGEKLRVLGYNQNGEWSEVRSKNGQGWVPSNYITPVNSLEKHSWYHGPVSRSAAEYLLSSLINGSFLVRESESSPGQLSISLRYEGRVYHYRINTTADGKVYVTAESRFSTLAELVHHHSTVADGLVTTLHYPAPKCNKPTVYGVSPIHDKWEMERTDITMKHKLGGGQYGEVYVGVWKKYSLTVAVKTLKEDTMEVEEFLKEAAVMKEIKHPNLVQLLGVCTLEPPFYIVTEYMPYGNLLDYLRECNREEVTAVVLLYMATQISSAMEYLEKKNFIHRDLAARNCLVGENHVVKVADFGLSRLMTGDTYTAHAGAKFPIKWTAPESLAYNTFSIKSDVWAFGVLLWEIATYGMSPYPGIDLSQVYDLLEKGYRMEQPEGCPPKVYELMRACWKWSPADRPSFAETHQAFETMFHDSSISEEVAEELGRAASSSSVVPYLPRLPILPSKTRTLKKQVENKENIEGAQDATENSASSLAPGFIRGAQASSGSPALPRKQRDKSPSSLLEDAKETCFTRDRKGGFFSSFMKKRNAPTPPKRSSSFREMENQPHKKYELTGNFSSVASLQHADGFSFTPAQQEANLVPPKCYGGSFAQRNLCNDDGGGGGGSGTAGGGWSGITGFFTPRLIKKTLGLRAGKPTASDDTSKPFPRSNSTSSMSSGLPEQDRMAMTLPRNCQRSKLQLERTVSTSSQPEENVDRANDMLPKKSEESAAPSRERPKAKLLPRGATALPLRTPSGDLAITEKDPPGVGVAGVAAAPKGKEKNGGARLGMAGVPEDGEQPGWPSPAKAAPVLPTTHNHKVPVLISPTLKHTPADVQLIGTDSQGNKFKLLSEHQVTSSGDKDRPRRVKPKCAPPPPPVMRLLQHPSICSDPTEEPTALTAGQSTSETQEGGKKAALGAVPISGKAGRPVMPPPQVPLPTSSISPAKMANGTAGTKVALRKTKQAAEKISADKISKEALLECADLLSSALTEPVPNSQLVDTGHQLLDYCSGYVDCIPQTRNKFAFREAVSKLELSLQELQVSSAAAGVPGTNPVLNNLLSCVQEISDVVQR
Procedure: as §2, §3

SMILES: C#Cc1cccc(Nc2ncnc3cc4c(cc23)OCCOCCOCCO4)c1.Cl [4-[(3-ethynyl-phenyl)amino]-6,7-benzo-12-crown-quinazoline hydrochloride]
- IC50 ([1]; BGC-823, 96 hr, listed as lcotinib hydrochloride Crystalline Form I, hydrochloride): 4.06 µM
- IC50 ([1]; Homo sapiens, BGC-823, 96 h): 4 µM
- IC50 ([2]; H460, 96 hr, listed as lcotinib hydrochloride Crystalline Form I, hydrochloride): 16.1 µM
- IC50 ([2]; Homo sapiens, NCI-H460, 96 h): 16 µM
- IC50 ([3]; A549, 96 hr, listed as lcotinib hydrochloride Crystalline Form I, hydrochloride): 12.2 µM
- IC50 ([3]; Homo sapiens, A549, 96 h): 12 µM
- activity against tumor cells (in words) ([4]; HCT8): low activity
- IC50 ([4]; Homo sapiens, HCT-8, HCT8, 96 hr, MTT): > 200 µM
- IC50 [5]: 1 µM
- activity against tumor cells (in words) [6]: low activity
- IC50 ([6]; Homo sapiens, 96 hr, MTT): 40.7 µM
- activity against tumor cells (in words) ([7]; BEL-7402): low activity
- IC50 ([7]; Homo sapiens, BEL-7402, 96 hr, MTT): > 200 µM
- clinical safety of single doses [8]: safe
- inhibition at 0.0005 µM ([9]; 0.5 nM, read-out: inhibition rate of EGFR kinase activity): 20.5%
- inhibition at 0.0025 µM ([9]; 2.5 nM, read-out: inhibition rate of EGFR kinase activity): 36.6%
- inhibition at 0.0125 µM ([9]; 12.5 nM, read-out: inhibition rate of EGFR kinase activity): 63%
- inhibition at 0.0625 µM ([9]; parallel comparison with Arg kinase, read-out: inhibition of EGFR kinase): 97%
- inhibition at 0.0625 µM ([9]; read-out: inhibition rate of EGFR kinase activity): 87.6%
- IC50 ([9]; from the dose-response curve, read-out: IC50 to inhibit EGFR kinase activity): 0.005 µM
- H460 tumor inhibition rate ([10]; 30 mg/kg oral gavage once daily for 14 days): 37.5%
- H460 tumor inhibition rate ([10]; 60 mg/kg oral gavage once daily for 14 days): 49.3%
- H460 tumor inhibition rate ([10]; 120 mg/kg oral gavage once daily for 14 days): 52.0%
- EC50 ([11]; A-431, read-out: median effective concentration (EC50)): ~0.05 µM
- inhibition at 0.01 µM ([11]; A-431, A431 cells, 10 nM, read-out: inhibition of EGF-induced intracellular protein tyrosine phosphorylation): 5.4%
- inhibition at 0.05 µM ([11]; A-431, A431 cells, 50 nM, read-out: inhibition of EGF-induced intracellular protein tyrosine phosphorylation): 52.9%
- inhibition at 0.25 µM ([11]; A-431, A431 cells, 250 nM, read-out: inhibition of EGF-induced intracellular protein tyrosine phosphorylation): 61.9%
- inhibition at 1 µM ([11]; A-431, A431 cells, 1000 nM, read-out: inhibition of EGF-induced intracellular protein tyrosine phosphorylation): 63.7%
- induction effect on P450 enzymes [12]: No significant induction effect
- bone marrow toxicity ([13]; Beagle dogs, mice, and rats): no bone marrow toxicity
- liver toxicity ([13]; Beagle dogs, mice, and rats): reversible liver toxicity
- oral toxicity ([13]; Beagle dogs, mice, and rats): low oral toxicity
- teratogenic, mutagenic and reproductive toxicity ([13]; additional toxicity testing): no teratogenic, mutagenic and reproductive toxicity
- effect on autonomic nervous system activity or the central nervous system ([13]; safety pharmacological test): no effect
- effect on respiration, blood pressure and circulatory function ([13]; safety pharmacological test): no effect
- inhibitory activity on drug metabolism enzymes [14]: no inhibitory activity
- inhibition of Arg kinase [15]: did not inhibit
